Reference: patent publication US12365665B2, “Solid form of diaminopyrimidine compound or hydrate thereof, preparation method therefor, and application thereof” (BEIJING TIDE PHARMACEUTICAL CO., LTD., priority 2020, dated 2025)

Key:
Type in all cases: physicochemical
[1] = Room temperature stability test (XRPD before and after storage); settings: sealed in medicinal low-density polyethylene bag, 180 days
Protocol: The detection instruments and conditions used in the following examples are as follows: • (1) X-Ray Powder Diffraction (XRPD) • Instrument Model: Bruker D8 advance, equipped with a LynxEye detector • Test conditions: the anode target material was copper, the light pipe was set to (40 KV 40 mA), the 2θ scan angle for the sample was from 3° to 40°, and scan step was 0.02°. • (2) Differential Scanning Calorimetry Analysis (DSC) • Instrument Model: TA Discovery DSC 250 (TA Instruments, US) • Test conditions: the heating rate was 10° C./min, and dry nitrogen was used as the purge gas. • (3) Thermogravimetric Analysis (TGA) • Instrument Model: Discovery TGA 55 (TA Instruments, US) • Test conditions: automatic weighing in the heating furnace, the heating rate was 10° C./min, and dry nitrogen was used as the purge gas. • (4) Polarizing Microscope Analysis (PLM) • Instrument Model: Polarizing Microscope ECLIPSE LV100POL (Nikon, JPN) […]

[2] = High temperature stability test (XRPD); settings: 60° C.
Protocol: (§1) The detection instruments and conditions used in the following examples are as follows: • (1) X-Ray Powder Diffraction (XRPD) • Instrument Model: Bruker D8 advance, equipped with a LynxEye detector • Test conditions: the anode target material was copper, the light pipe was set to (40 KV 40 mA), the 2θ scan angle for the sample was from 3° to 40°, and scan step was 0.02°. • (2) Differential Scanning Calorimetry Analysis (DSC) • Instrument Model: TA Discovery DSC 250 (TA Instruments, US) • Test conditions: the heating rate was 10° C./min, and dry nitrogen was used as the purge gas. • (3) Thermogravimetric Analysis (TGA) • Instrument Model: Discovery TGA 55 (TA Instruments, US) • Test conditions: automatic weighing in the heating furnace, the heating rate was 10° C./min, and dry nitrogen was used as the purge gas. • (4) Polarizing Microscope Analysis (PLM) • Instrument Model: Polarizing Microscope ECLIPSE LV100POL (Nikon, JPN)
The stability of the crystalline form I prepared in Example 2 was investigated at 60° C., and the XRPD pattern was measured with a Bruker D8 advance X-ray powder diffractometer (see FIG. 19).

[3] = High humidity stability test (XRPD); settings: 92.5% RH/25° C., after 5, 10 and 30 days
Protocol: as §1
The stability of the crystalline form I prepared in Example 2 was investigated under a condition of 92.5% RH/25° C., and the XRPD pattern was measured with a Bruker D8 advance X-ray powder diffractometer (see FIG. 20).

[4] = Physical grinding stability test (XRPD); settings: physically ground for 2 minutes
Protocol: as §1
The crystalline form I prepared in Example 2 was physically ground for 2 minutes, and then the XRPD pattern was measured with a Bruker D8 advance X-ray powder diffractometer (see FIG. 21).

Compound: C#Cc1cc(Oc2cnc(N)nc2N)c(C(C)C)cn1 [crystalline form I, 5-((2-ethynyl-5-isopropylpyridin-4-yl)oxy)pyrimidine-2,4-diamine]
- change in the crystalline form (XRPD) after storage at room temperature [1]: no change in the crystalline form
- change in the crystalline form after storage under a high temperature condition (summary statement) ([2]; 30 days): its crystalline form did not change
- change in the crystalline form (XRPD) at high temperature ([2]; after 5, 10 and 30 days): no change in the crystalline form
- change in the crystalline form (XRPD) at high humidity [3]: no change in the crystalline form
- change in the crystalline form (XRPD) after physical grinding [4]: no change in the crystalline form
